pIC50: −log10 of the molar value. ≈ marks a conversion by molar mass, not a printed value. Entries after “also recorded” stand apart in the source; their conditions may differ. Like-named read-outs stand apart in the source and are kept apart here.
Assays:
[1] = tested on: Plasmodium falciparum 3D7-A10 parasites; experiment: Stage specificity assay (8-h exposure of synchronized stages, IC50^8h); type: cell-based; conditions: for pIC50: Plasmodium falciparum
[2] = tested on: asynchronous 3D7-A10 parasite cultures; experiment: Standard 72-h exposure asexual blood stage susceptibility assay (IC50^72h); type: cell-based, Plasmodium falciparum; conditions: Plasmodium falciparum, 3D7, 72 h, read-out: Overall (72hr assay) Mean IC50 (IC50^72h)
[3] = tested on: 3D7-MR4 trophozoite parasite-infected RBCs; experiment: Metabolomic profiling (hydrophilic metabolite changes, UHPLC-MS); type: cell-based, Plasmodium falciparum
[4] = 1.5 h, 500 μM, pH 7.4
physchem = conditions: pH 7.4, aqueous buffer, kinetic from dmso stock
[5] = 10 × IC50^72h, 2.5 hr, trophozoites

Clc1ccc2c(N3CCN(CCCN4CCN(c5ccnc6cc(Cl)ccc56)CC4)CC3)ccnc2c1 [Piperaquine, reference compound]
Ratio lowest IC50 8hr/IC50 72hr ([1]; 3D7-A10): 1.7 | overall activity profile (stages on which active) ([1]; 8-h exposures): activity on all stages | pIC50 ([1]; 3D7, read-out: Early rings Mean IC50 (IC50^8h), 8-h exposure 0–8 hr, 3D7-A10, survival at 60 h): 7.58 | pIC50 ([1]; 3D7, read-out: Early trophozoites Mean IC50 (IC50^8h), 8-h exposure 16–24 hr, 3D7-A10, survival at 60 h): 7.56 | pIC50 ([1]; 3D7, read-out: Late rings Mean IC50 (IC50^8h), 8-h exposure 8–16 hr, 3D7-A10, survival at 60 h): 7.33 | pIC50 ([1]; 3D7, read-out: Late trophozoites Mean IC50 (IC50^8h), 8-h exposure 24–32 hr, 3D7-A10, survival at 60 h): 7.48 | pIC50 ([1]; 3D7, read-out: Schizonts Mean IC50 (IC50^8h), 8-h exposure 32–40 hr, 3D7-A10, survival at 60 h): 7.17 | IC50^8h relative to IC50^72h value ([1]; most susceptible stages): ≤ 2 fold | Stage of peak activity (Figure 6) ([1]; period when the parasite was most susceptible (lowest IC50^8h)): ring and trophozoite stages; also recorded: rings and trophozoites | pIC50 [2]: 7.81 | changes within the set of metabolites detected (low fold change group) [3, 5]: did not induce major changes | decreased levels of dCDP, dTMP, guanosine, and guanine [3, 5]: ≥ 2 fold | Log2(fold changes) 3-phosphoglycerate ([3]; metabolite 3-phosphoglycerate, log2 fold change): 0.1576 | Log2(fold changes) 4-Pyridoxic acid ([3]; metabolite 4-Pyridoxic acid, log2 fold change): 0.0000 | Log2(fold changes) 4-aminobutyrate ([3]; metabolite 4-aminobutyrate, log2 fold change): -0.0347 | Log2(fold changes) 4-phosphopantetheine ([3]; metabolite 4-phosphopantetheine, log2 fold change): 0.0000 | Log2(fold changes) 4-phosphopantothenate ([3]; metabolite 4-phosphopantothenate, log2 fold change): -0.1578 | Log2(fold changes) 5-aminopentanoic acid ([3]; metabolite 5-aminopentanoic acid, log2 fold change): 0.0000 | Log2(fold changes) 5-methyl-THF ([3]; metabolite 5-methyl-THF, log2 fold change): 0.0000 | Log2(fold changes) 5-phosphoribosyl-1-pyrophosphate ([3]; metabolite 5-phosphoribosyl-1-pyrophosphate, log2 fold change): 0.2840 | Log2(fold changes) 6-phospho-D-gluconate ([3]; metabolite 6-phospho-D-gluconate, log2 fold change): 0.0537 | Log2(fold change) HVDD ([3]; metabolite HVDD): 0.0000 | Log2(fold change) Hydroxyisocaproic acid ([3]; metabolite Hydroxyisocaproic acid): 0.0000 | Log2(fold change) IDP ([3]; metabolite IDP): -0.0045 | Log2(fold change) IMP ([3]; metabolite IMP): -0.1159 | Log2(fold change) Inositol ([3]; metabolite Inositol): 0.0000 | Log2(fold change) Isopentyl-PP ([3]; metabolite Isopentyl-PP): 0.0000 | Log2(fold change) L-arginino-succinate ([3]; metabolite L-arginino-succinate): 0.0000 | Log2(fold change) LD ([3]; metabolite LD): 0.0483 | Log2(fold change) Myristoyl/tetradecanoyl-CoA ([3]; metabolite Myristoyl/tetradecanoyl-CoA): 0.0000 | Log2(fold change) N-Acetyl-L-alanine ([3]; metabolite N-Acetyl-L-alanine): -0.2552 | Log2(fold change) N-acetyl-L-ornithine ([3]; metabolite N-acetyl-L-ornithine): -0.0188 | Log2(fold change) N-acetyl-glucosamine-1/6-phosphate ([3]; metabolite N-acetyl-glucosamine-1/6-phosphate): -0.1206 | Log2(fold change) N-acetyl-glutamate ([3]; metabolite N-acetyl-glutamate): -0.0276 | Log2(fold change) N-acetyl-glutamine ([3]; metabolite N-acetyl-glutamine): 0.0000 | Log2(fold change) N-carbamoyl-L-aspartate ([3]; metabolite N-carbamoyl-L-aspartate): -0.1894 | Log2(fold change) NAD+ ([3]; metabolite NAD+): -0.0736 | Log2(fold change) NADH ([3]; metabolite NADH): 0.1619 | Log2(fold change) NADP+ ([3]; metabolite NADP+): 0.0160 | Log2(fold change) NADPH ([3]; metabolite NADPH): 0.1653 | Log2(fold change) O-acetyl-L-serine ([3]; metabolite O-acetyl-L-serine): 0.0000 | Log2(fold change) Octoluse 8/1P ([3]; metabolite Octoluse 8/1P): -0.0774 | Log2(fold change) Octoluse Bisphosphate ([3]; metabolite Octoluse Bisphosphate): 0.0393 | Log2(fold change) PD ([3]; metabolite PD): -0.0500 | Log2(fold change) PE ([3]; metabolite PE): 0.0291 | Log2(fold change) PEE ([3]; metabolite PEE): 0.1599 | Log2(fold change) PEEK ([3]; metabolite PEEK): 0.3927 | Log2(fold change) PVNF ([3]; metabolite PVNF): 0.0618 | Log2(fold change) Pyroglutamic acid ([3]; metabolite Pyroglutamic acid): -0.2255 | Log2(fold change) Pyrophosphate ([3]; metabolite Pyrophosphate): 0.0000 | Log2(fold change) Ribose-5-phosphate ([3]; metabolite Ribose-5-phosphate): -0.0505 | Log2(fold change) S-adenosyl-L-homocysteine ([3]; metabolite S-adenosyl-L-homocysteine): -0.1747 | Log2(fold change) S-adenosyl-L-methioninamine ([3]; metabolite S-adenosyl-L-methioninamine): 0.0000 | Log2(fold change) S-adenosyl-L-methionine ([3]; metabolite S-adenosyl-L-methionine): 0.0000 | Log2(fold change) S-methyl-5'-thioadenosine ([3]; metabolite S-methyl-5'-thioadenosine): -5.54e-5 | Log2(fold change) SD ([3]; metabolite SD): 0.0815 | Log2(fold change) SDL ([3]; metabolite SDL): 0.0000 | Log2(fold change) SID ([3]; metabolite SID): 0.0000 | Log2(fold change) Sedoheptulose bisphosphate ([3]; metabolite Sedoheptulose bisphosphate): 0.2230 | Log2(fold change) Thiamine pyrophosphate ([3]; metabolite Thiamine pyrophosphate): -0.1023 | Log2(fold changes) UDP-D-glucose ([3]; metabolite UDP-D-glucose, log2 fold change): -0.0097 | Log2(fold changes) UDP-D-glucuronate ([3]; metabolite UDP-D-glucuronate, log2 fold change): 0.0081 | Log2(fold changes) UDP-N-acetyl-glucosamine ([3]; metabolite UDP-N-acetyl-glucosamine, log2 fold change): -0.0956 | Log2(fold changes) UDP ([3]; metabolite UDP, log2 fold change): -0.8655 | Log2(fold changes) UMP ([3]; metabolite UMP, log2 fold change): -0.2304 | Log2(fold changes) UTP ([3]; metabolite UTP, log2 fold change): 0.0058 | Log2(fold change) hydroxyphenylpyruvate ([3]; metabolite hydroxyphenylpyruvate): 0.0000 | Log2(fold change) hydroxyproline/Aminolevulinate ([3]; metabolite hydroxyproline/Aminolevulinate): 0.0000 | Log2(fold change) hypoxanthine ([3]; metabolite hypoxanthine): 0.0000 | Log2(fold change) indole ([3]; metabolite indole): 0.0000 | Log2(fold change) inosine ([3]; metabolite inosine): -0.3997 | Log2(fold change) isoleucine ([3]; metabolite isoleucine): 0.1103 | Log2(fold change) lactate ([3]; metabolite lactate): -0.4255 | Log2(fold change) leucine ([3]; metabolite leucine): -0.0845 | Log2(fold change) lysine ([3]; metabolite lysine): 0.0614 | Log2(fold change) malate ([3]; metabolite malate): -0.0964 | Log2(fold change) maleic acid ([3]; metabolite maleic acid): -0.0992 | Log2(fold change) methionine ([3]; metabolite methionine): 0.1002 | Log2(fold change) myo-inositol ([3]; metabolite myo-inositol): -0.6606 | Log2(fold change) nicotinamide mononucleotide ([3]; metabolite nicotinamide mononucleotide): -0.1524 | Log2(fold change) nicotinate ([3]; metabolite nicotinate): -0.4222 | Log2(fold change) ornithine ([3]; metabolite ornithine): 0.0000 | Log2(fold change) orotate ([3]; metabolite orotate): -0.5698 | Log2(fold change) orotidine-5'-phosphate ([3]; metabolite orotidine-5'-phosphate): -0.6109 | Log2(fold change) oxaloacetate ([3]; metabolite oxaloacetate): 0.0000 | Log2(fold change) p-aminobenzoate ([3]; metabolite p-aminobenzoate): 0.0000 | Log2(fold change) p-hydroxybenzoate ([3]; metabolite p-hydroxybenzoate): 0.0000 | Log2(fold change) pantothenate ([3]; metabolite pantothenate): -0.1253 | Log2(fold change) phenylalanine ([3]; metabolite phenylalanine): -0.1188 | Log2(fold change) phenylpyruvate ([3]; metabolite phenylpyruvate): 0.0000 | Log2(fold change) phosphoenolpyruvate ([3]; metabolite phosphoenolpyruvate): 0.1409 | Log2(fold change) prephenate ([3]; metabolite prephenate): 0.0000 | Log2(fold change) proline ([3]; metabolite proline): -0.1490 | Log2(fold change) pyridoxine ([3]; metabolite pyridoxine): -0.1465 | Log2(fold change) pyruvate ([3]; metabolite pyruvate): -0.2297 | Log2(fold change) riboflavin ([3]; metabolite riboflavin): 0.0675 | Log2(fold change) ribose ([3]; metabolite ribose): 0.0000 | Log2(fold change) ribose-phosphate ([3]; metabolite ribose-phosphate): -0.1362 | Log2(fold change) ribulose-5-phosphate ([3]; metabolite ribulose-5-phosphate): -0.0392 | Log2(fold change) serine ([3]; metabolite serine): 0.0266 | Log2(fold change) sn-glycerol-3-phosphate ([3]; metabolite sn-glycerol-3-phosphate): 0.0600 | Log2(fold change) succinate/Methylmalonic acid ([3]; metabolite succinate/Methylmalonic acid): 0.0813 | Log2(fold change) succinyl-CoA/methylmalonyl-CoA ([3]; metabolite succinyl-CoA/methylmalonyl-CoA): 0.0000 | Log2(fold change) taurine ([3]; metabolite taurine): 0.4424 | Log2(fold change) thiamine ([3]; metabolite thiamine): -0.0999 | Log2(fold change) threonine/homoserine ([3]; metabolite threonine/homoserine): -0.0376 | Log2(fold change) thymidine ([3]; metabolite thymidine): 0.0000 | Log2(fold changes) thymine ([3]; metabolite thymine, log2 fold change): 0.0000 | Log2(fold changes) trehalose-6-Phosphate ([3]; metabolite trehalose-6-Phosphate, log2 fold change): 0.0000 | Log2(fold changes) tryptophan ([3]; metabolite tryptophan, log2 fold change): -0.0757 | Log2(fold changes) tyrosine ([3]; metabolite tyrosine, log2 fold change): 0.0866 | Log2(fold changes) uridine ([3]; metabolite uridine, log2 fold change): -0.4854 | Ratio fil./std. (absorbance filtrate/standard) [4]: 0.69 | solubility at 1.5 h (physchem): 100 to 500 µM (≈ 53.6 to 268 µg/mL)
